Calls of active or inactive are those of the source.
Tests used:
[1] = HGIII-sPLA2 enzyme inhibition potency – biochemical, QFRET, IC50, dose response (AID 743457);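 note: green fluorescence rise as the enzyme cleaves BODIPY PC-A2 in liposomes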
cells [2] = format: functional, cell-based
[3] = molecular target: T1, Nuclear receptor subfamily 0 group B member 1 (Homo sapiens, UniProt P51843); format: functional, cell-based;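 note: HEK293T cells transfected with SF-1 and DAX-1 plus StAR promoter luciferase reporter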
T1 sequence (P51843 whole entry): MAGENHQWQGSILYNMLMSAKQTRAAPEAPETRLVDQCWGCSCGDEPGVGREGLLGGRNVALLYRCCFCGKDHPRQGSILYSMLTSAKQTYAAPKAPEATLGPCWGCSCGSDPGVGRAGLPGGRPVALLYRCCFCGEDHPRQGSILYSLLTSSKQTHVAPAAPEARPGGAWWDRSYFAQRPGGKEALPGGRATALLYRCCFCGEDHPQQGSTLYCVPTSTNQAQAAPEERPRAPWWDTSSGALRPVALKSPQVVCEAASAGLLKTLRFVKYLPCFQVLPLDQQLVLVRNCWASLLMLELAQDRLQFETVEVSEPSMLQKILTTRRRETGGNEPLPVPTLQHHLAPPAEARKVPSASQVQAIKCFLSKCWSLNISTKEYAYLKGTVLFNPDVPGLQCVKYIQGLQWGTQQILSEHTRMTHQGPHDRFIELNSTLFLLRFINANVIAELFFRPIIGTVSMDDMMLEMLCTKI

[4] = molecular target: ADP-ribosylation factor GTPase-activating protein 1 (Rattus norvegicus, UniProt Q62848); experiment: Fluorescence polarization-based biochemical high throughput dose response screening assay to identify inhibitors of ADP-ribosylation factor GTPase activating protein 1 (ARFGAP1).; format: functional
Beta Lactamase = Beta Lactamase (Pseudomonas aeruginosa, UniProt Q932Y6);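 note: confirmatory high-throughput screen measuring VIM-2 metallo-beta-lactamase inhibition by epi-absorbance in dose response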
Beta-lactamase [5] = molecular target: Beta-lactamase (Pseudomonas aeruginosa, UniProt Q79MP6);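 note: biochemical dose-response test of metallo-beta-lactamase enzyme inhibition, read out by epi-absorbance; purified recombinant IMP-1 metallo-beta-lactamase with nitrocefin as substrate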
Beta-lactamase [6] = molecular target: Beta-lactamase (Salmonella choleraesuis (strain SC-B67), UniProt Q5J463)
[7] = molecular target: 26S proteasome non-ATPase regulatory subunit 14 (Homo sapiens, UniProt O00487); experiment: inhibition of proteasome subunit RPN11 – biochemical, fluorescence polarization, uHTS hits, confirmation (AID 602368); format: functional
[8] = molecular target: 72 kDa type IV collagenase (Homo sapiens, UniProt P08253); experiment: Dose Response validation of uHTS RPN11 inhibitor hits using a MMP-2 Fluorescence assay.; format: functional
Prothrombin = Prothrombin (Bos taurus, UniProt P00735); experiment: thrombin protease inhibitors – biochemical, fluorescence polarization, uHTS hits, dose response (AID 602369); format: functional
[9] = molecular target: T2, Low molecular weight phosphotyrosine protein phosphatase (Homo sapiens, UniProt P24666); format: functional; conditions: read-out: IC50_Mean
T2 sequence (P24666 whole entry): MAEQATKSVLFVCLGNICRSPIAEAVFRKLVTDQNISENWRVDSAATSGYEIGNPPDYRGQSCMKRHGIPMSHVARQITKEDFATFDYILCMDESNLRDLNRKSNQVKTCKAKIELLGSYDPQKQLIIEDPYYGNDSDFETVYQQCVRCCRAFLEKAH

[10] = molecular target: T2, Low molecular weight phosphotyrosine protein phosphatase; format: functional; conditions: read-out: IC50_Mean; remark: listed apart in the source
[11] = molecular target: Induced myeloid leukemia cell differentiation protein Mcl-1 (Homo sapiens, UniProt Q07820); format: functional
[12] = molecular target: T3, Small ubiquitin-related modifier 1 (Homo sapiens, UniProt P63165); experiment: SUMO1 protein interaction blockers, potency – biochemical, fluorescence polarization, uHTS hits, dose response (AID 624382); format: functional; conditions: read-out: IC50_Mean
[13] = molecular target: T3, Small ubiquitin-related modifier 1; experiment: SUMO1 protein-protein binding blockers, potency – biochemical, FRET, dose response (AID 624383); format: functional; conditions: read-out: IC50_Mean
Beta-galactosidase = Beta-galactosidase (Escherichia coli, UniProt Q8VNN2); experiment: Dose response counterscreen for EBI2 assay utilizing the enzyme, b-galactosidase.; format: functional
[14] = molecular target: T4, Sentrin-specific protease 8 (Homo sapiens, UniProt Q96LD8); format: functional
T4 sequence (Q96LD8 whole entry): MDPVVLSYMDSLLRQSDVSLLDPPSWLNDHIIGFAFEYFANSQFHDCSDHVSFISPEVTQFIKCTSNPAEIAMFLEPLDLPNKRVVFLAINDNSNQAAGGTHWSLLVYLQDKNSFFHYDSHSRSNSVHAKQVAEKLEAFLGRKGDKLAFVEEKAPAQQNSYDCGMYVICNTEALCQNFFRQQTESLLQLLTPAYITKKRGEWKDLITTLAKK

[15] = molecular target: T4, Sentrin-specific protease 8; format: functional; remark: listed apart in the source
cells [16] = format: functional, cell-based; remark: listed apart in the source
[17] = molecular target: T5, Trace amine-associated receptor 1 (Homo sapiens, UniProt Q96RJ0); experiment: Fluorescence-based cell-based high throughput dose response assay to identify agonists of the human trace amine associated receptor 1 (TAAR1).; format: functional
T5 sequence (Q96RJ0 whole entry): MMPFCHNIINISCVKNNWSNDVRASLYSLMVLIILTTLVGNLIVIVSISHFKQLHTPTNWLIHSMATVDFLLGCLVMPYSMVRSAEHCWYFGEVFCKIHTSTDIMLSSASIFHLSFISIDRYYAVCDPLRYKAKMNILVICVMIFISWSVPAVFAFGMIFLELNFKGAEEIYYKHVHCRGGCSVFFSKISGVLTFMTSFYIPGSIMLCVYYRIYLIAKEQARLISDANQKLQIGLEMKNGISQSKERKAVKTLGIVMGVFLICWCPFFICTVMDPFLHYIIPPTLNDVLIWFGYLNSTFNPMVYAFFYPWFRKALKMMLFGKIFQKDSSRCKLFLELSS

[18] = molecular target: T5, Trace amine-associated receptor 1; experiment: Counterscreen for agonists of the human trace amine associated receptor 1 (hTAAR1): Fluorescence-based cell-based high throughput dose response assay to identify hTAAR1 agonist that also desensitize TAAR1 receptor response.; format: functional
cells [19] = format: functional, cell-based; remark: listed apart in the source
[20] = molecular target: T6, Voltage-gated N-type calcium channel alpha-1B subunit/Amyloid beta A4 precursor protein-binding family A member 1 (Homo sapiens, UniProt Q00975+Q02410); format: protein assay
[21] = molecular target: T6, Voltage-gated N-type calcium channel alpha-1B subunit/Amyloid beta A4 precursor protein-binding family A member 1; format: protein assay; remark: listed apart in the source
[22] = molecular target: T7, Rac GTPase-activating protein 1 (Homo sapiens, UniProt Q9H0H5); experiment: blockers of MgcRacGAP-driven Rac1 GTP hydrolysis – biochemical, ADP Hunter fluorescence, primary and confirmatory, confirmation (AID 624330); format: functional
T7 sequence (Q9H0H5 whole entry): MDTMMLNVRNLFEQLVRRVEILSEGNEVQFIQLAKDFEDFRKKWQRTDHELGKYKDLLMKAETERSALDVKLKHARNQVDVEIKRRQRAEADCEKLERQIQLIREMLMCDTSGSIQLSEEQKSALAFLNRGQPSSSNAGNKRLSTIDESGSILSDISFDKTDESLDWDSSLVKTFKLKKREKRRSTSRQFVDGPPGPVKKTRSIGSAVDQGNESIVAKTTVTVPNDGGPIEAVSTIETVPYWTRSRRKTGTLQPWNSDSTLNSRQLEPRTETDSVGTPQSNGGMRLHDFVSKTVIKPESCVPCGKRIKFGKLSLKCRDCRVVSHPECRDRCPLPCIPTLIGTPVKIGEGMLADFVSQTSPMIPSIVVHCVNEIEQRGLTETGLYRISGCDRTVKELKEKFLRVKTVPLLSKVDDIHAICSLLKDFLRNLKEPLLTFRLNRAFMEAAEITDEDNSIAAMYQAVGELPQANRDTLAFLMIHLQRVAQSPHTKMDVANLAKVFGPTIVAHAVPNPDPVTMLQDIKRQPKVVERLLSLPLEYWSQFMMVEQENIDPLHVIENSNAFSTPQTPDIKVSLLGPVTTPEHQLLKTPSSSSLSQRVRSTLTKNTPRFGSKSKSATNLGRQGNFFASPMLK

[23] = A549 cell cytotoxicity, dose response, cytotoxicity control, plate reader, cherry-pick, antagonist series (AID 743412); format: functional, cell-based
[24] = toxicity toward HepG2 liver cells – cell-based, plate reader, cherry-pick, antagonist series, cytotoxicity control, dose response (AID 743416); format: functional
[25] = blockers of bursicon-stimulated LGR2 cAMP reporter – cell-based, HEK293, CRE-luciferase reporter, cherry pick, set 2, dose response (AID 743343); format: functional;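 note: transfected cells were stimulated with diluted bursicon conditioned medium after compound addition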
[26] = blockade of melanocortin 4 receptor signaling – cell-based, plate reader, cherry pick, counter-screen for LGR2 antagonist project, dose response (AID 743444); format: functional;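 note: transfected HEK 293 cells stimulated with alpha-MSH peptide; potency of inhibitors of the alpha-MSH evoked signal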
[27] = viability loss in HEK293 cells – cell-based, plate reader, cherry-picked samples, cytotoxicity control, dose response (AID 743446); format: functional
INS1 = experiment: INS-1E survival protection against cytokine death – cell-based, luminescence, retest, dose response (AID 449756); format: functional; conditions: Rattus norvegicus;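 note: cell death triggered by IL-1 beta plus TNF-alpha plus IFN-gamma mixture; protective hits raise ATP signal compared with cytokine alone wells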
[28] = reduction of Shn3 3'UTR-driven luciferase in osteoblasts – cell-based, Clone20 osteoblasts, firefly luciferase, cherry-picked, dose response (AID 624132); format: functional;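 note: firefly luciferase luminescence from reporter carrying the Shn3 3'UTR in osteoblasts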
[29] = loss of viability in HepG2 cells – cell-based, CellTiter-Glo, cherry-picked, cytotoxicity control for Shn3 inhibitor project, dose response (AID 624134); format: functional
[30] = non-specific 3'UTR reporter inhibition in Clone20-Shn3RL – cell-based, Renilla luciferase, cherry-picked, counter-screen for Shn3 inhibitor project, dose response (AID 624133); format: functional
Galanin receptor type 3 = Galanin receptor type 3 (Homo sapiens, UniProt O60755); experiment: Fluorescence-based cell-based primary high throughput dose response assay to identify antagonists of the Galanin Receptor 3 (GalR3).; format: functional
cells [31] = format: functional, cell-based; conditions: HEK-CNG
[32] = molecular target: T8, COUP transcription factor 2 (Homo sapiens, UniProt P24468); experiment: Luminescence-based cell-based high throughput dose response assay to identify inhibitors of COUP-TFII (NR2F2).; format: functional;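 note: HEK293 cells transiently cotransfected with COUP-TFII expression vector and reporter; luciferase reporter luminescence driven by COUP-TFII from the pX2-168 reporter plasmid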
T8 sequence (P24468 whole entry): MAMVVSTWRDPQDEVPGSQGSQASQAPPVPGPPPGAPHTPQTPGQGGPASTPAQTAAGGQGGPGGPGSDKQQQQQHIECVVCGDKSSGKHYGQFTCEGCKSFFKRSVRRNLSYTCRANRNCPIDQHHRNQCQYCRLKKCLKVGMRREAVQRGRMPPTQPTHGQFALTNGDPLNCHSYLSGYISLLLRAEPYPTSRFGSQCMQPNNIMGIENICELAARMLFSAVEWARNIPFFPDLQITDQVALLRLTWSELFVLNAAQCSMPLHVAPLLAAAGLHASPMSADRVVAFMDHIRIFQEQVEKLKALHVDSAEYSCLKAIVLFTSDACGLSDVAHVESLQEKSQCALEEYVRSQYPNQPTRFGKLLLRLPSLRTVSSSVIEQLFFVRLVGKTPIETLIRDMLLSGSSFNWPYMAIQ

Mu-type opioid receptor = Mu-type opioid receptor (Homo sapiens, UniProt P35372); format: functional, cell-based;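 note: U2OS cells with beta-arrestin recruitment to OPRM1 by beta-gal complementation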
[33] = molecular target: 5-hydroxytryptamine receptor 2A (Mus musculus, UniProt P35363); format: functional, cell-based;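 note: CHO-K1 cells with tagged receptor and beta-arrestin; agonist potency measured as compound-induced activation of the receptor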
Sequence of 5-hydroxytryptamine receptor 2A (P35363 whole entry): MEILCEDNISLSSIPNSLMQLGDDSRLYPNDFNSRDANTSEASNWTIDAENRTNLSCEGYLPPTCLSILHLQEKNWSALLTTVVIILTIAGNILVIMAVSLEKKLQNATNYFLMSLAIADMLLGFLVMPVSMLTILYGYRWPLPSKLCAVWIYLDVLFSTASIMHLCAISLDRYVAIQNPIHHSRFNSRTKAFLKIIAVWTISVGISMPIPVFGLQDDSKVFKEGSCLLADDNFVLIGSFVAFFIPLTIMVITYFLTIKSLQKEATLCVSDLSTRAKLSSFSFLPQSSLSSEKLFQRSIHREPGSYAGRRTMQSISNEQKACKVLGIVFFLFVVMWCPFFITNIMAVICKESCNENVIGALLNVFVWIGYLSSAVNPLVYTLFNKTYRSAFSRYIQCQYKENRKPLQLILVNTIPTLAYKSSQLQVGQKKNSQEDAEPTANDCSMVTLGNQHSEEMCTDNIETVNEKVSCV

T3 sequence (P63165 whole entry): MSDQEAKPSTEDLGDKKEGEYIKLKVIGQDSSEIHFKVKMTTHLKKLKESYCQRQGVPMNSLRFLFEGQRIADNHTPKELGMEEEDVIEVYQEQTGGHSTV
Sequence of Beta-lactamase (Salmonella choleraesuis (strain SC-B67), UniProt Q5J463) (Q5J463 whole entry): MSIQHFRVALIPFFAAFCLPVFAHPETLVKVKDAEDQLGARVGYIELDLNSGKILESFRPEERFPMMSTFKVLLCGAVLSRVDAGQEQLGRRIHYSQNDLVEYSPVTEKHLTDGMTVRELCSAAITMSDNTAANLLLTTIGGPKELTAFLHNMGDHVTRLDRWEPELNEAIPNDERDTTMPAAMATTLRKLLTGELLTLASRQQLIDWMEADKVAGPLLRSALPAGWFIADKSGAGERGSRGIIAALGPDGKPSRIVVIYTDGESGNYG
Sequence of Galanin receptor type 3 (O60755 whole entry): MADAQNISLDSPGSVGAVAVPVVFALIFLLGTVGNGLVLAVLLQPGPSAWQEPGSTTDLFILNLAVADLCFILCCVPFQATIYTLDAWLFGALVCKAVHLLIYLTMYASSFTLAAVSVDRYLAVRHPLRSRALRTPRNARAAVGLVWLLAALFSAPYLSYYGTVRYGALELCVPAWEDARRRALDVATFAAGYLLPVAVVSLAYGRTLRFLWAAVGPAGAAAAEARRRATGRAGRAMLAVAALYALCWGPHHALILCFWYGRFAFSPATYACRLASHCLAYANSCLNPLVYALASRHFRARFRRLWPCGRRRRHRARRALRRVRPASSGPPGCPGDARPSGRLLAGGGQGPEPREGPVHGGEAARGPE
Sequence of Beta-lactamase (Pseudomonas aeruginosa, UniProt Q79MP6) (Q79MP6 whole entry): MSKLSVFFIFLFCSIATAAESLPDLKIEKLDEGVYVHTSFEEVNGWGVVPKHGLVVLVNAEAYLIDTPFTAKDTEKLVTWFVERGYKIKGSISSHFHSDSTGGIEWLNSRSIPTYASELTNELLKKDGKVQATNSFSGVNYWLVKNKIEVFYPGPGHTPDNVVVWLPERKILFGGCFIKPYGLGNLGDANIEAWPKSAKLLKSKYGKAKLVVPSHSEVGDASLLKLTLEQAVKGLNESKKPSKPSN
Sequence of Beta-galactosidase (Q8VNN2 whole entry): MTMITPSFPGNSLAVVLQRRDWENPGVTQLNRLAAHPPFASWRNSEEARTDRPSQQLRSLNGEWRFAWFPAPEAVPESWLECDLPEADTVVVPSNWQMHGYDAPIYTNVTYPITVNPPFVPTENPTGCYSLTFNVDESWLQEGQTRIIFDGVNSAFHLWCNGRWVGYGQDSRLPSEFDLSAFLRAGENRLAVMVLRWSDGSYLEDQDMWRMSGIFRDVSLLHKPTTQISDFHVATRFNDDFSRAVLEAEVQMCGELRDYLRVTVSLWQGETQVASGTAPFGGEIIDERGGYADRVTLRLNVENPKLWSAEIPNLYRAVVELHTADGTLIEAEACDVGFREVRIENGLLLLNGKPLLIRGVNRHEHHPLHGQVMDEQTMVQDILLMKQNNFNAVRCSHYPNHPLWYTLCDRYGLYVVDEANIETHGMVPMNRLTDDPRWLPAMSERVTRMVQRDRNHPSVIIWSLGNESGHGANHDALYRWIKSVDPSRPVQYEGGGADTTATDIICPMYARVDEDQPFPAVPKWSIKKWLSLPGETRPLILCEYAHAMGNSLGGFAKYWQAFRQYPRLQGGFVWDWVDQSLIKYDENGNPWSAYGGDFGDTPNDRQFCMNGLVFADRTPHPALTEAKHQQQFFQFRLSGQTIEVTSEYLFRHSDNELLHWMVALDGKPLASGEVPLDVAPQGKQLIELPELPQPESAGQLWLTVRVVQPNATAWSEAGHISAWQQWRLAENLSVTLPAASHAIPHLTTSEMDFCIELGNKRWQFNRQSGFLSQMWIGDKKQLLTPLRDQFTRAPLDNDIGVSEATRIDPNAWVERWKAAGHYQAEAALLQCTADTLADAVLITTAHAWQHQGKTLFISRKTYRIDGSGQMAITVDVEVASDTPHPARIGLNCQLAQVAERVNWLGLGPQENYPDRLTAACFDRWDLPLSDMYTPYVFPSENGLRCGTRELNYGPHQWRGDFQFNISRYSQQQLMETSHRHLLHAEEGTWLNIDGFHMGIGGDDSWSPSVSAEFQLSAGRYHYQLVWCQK
Sequence of Beta Lactamase (Q932Y6 whole entry): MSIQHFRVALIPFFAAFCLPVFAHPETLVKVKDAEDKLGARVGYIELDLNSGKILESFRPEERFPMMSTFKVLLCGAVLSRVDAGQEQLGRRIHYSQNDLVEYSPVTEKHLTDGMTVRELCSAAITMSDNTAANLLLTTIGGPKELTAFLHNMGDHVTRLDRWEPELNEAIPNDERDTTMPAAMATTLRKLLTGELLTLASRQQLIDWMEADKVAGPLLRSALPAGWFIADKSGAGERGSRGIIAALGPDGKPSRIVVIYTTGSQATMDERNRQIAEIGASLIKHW
Sequence of 72 kDa type IV collagenase (P08253 whole entry): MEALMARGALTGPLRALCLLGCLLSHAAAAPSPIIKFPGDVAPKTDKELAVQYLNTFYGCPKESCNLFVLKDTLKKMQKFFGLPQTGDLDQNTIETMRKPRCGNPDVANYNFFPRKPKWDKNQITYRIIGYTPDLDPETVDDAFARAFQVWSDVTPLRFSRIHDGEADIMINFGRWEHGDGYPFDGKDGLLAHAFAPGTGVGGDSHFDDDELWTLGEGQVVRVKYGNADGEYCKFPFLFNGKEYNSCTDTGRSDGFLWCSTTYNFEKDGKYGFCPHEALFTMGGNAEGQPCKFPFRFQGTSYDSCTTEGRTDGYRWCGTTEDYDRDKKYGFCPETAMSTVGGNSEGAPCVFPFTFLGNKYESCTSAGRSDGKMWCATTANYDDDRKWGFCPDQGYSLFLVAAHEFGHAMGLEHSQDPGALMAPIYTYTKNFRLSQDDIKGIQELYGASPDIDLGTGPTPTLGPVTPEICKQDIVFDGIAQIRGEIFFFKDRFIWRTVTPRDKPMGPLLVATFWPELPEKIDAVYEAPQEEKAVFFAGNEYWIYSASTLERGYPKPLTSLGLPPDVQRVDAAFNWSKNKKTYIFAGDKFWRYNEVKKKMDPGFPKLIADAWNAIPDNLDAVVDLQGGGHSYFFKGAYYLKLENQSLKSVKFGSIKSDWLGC
Sequence of Induced myeloid leukemia cell differentiation protein Mcl-1 (Q07820 whole entry): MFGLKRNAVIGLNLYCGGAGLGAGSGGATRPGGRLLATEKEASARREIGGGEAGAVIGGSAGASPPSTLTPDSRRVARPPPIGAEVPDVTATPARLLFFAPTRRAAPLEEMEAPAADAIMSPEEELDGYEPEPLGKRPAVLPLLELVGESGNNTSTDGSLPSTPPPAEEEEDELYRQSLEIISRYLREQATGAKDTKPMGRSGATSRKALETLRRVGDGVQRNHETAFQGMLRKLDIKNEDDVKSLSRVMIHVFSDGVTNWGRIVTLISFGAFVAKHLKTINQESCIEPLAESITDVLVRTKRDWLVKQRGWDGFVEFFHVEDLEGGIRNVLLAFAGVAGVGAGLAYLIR
Sequence of 26S proteasome non-ATPase regulatory subunit 14 (O00487 whole entry): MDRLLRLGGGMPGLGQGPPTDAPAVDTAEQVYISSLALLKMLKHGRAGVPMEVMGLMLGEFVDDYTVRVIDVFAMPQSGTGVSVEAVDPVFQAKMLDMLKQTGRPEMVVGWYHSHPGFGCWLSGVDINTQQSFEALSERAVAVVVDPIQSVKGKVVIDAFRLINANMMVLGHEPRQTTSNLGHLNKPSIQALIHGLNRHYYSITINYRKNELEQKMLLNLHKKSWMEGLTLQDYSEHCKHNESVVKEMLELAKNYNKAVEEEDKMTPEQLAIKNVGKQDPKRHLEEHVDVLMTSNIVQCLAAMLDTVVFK
Sequence of Mu-type opioid receptor (P35372 whole entry): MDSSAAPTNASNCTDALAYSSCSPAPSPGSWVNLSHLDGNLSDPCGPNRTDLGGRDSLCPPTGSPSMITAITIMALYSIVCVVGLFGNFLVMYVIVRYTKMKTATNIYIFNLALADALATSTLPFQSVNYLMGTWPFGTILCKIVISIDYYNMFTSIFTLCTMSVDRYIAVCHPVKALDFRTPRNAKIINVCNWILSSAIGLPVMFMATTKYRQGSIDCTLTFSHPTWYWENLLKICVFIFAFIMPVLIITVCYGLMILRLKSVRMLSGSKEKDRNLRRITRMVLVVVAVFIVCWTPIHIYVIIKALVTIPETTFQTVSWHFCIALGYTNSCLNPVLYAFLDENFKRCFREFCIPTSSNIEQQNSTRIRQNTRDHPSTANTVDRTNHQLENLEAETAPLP
Sequence of ADP-ribosylation factor GTPase-activating protein 1 (Q62848 whole entry): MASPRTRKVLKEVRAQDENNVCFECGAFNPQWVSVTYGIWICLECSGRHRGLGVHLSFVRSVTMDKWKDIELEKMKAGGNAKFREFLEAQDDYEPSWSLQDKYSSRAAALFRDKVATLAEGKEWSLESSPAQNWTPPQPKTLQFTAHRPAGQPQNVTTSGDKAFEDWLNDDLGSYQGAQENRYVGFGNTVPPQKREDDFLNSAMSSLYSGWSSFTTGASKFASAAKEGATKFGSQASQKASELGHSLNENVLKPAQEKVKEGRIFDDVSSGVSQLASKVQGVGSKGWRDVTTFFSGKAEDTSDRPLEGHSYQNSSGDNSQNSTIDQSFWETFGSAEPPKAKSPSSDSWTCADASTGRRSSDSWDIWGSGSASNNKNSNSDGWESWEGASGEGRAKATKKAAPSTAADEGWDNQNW

SMILES: Cc1ccccc1OCCCN1C(=O)C(=O)c2cccc(C)c21
- IC50 [1]: > 122 µM (inactive)

SMILES: CCC1CCCCN1C(=O)CCS(=O)(=O)c1ccccc1 (stereo not drawn)
- IC50 (cells [2]): > 67.6 µM (inactive)
- IC50 [3]: > 67.6 µM (inactive)

SMILES: O=C(Cn1c2ccc(F)cc2c2nc3n(c(=O)c21)CCS3)Nc1ccccc1C(F)(F)F
- IC50 [4]: 50.1 µM (inactive)

SMILES: COc1ccc(/C(C)=N/NC(=O)c2nnn(-c3nonc3N)c2-c2ccccc2)cc1
- IC50 (Beta Lactamase): > 59.6 µM (inactive)
- IC50 (Beta-lactamase [5]): > 59.6 µM (inactive)
- IC50 (Beta-lactamase [6]): > 59.6 µM (inactive)
- IC50 [7]: 30.2 µM (active)
- IC50 [8]: 8.15 µM (active)
- IC50 (Prothrombin): > 100 µM (inactive)
- IC50 [9]: > 80 µM (inactive)
- IC50 [10]: 35.2 µM (inactive)

SMILES: O=C(NC1CC1)c1cc(-c2ccco2)nc2ccccc12
- IC50 [11]: 1.71 µM (active)
- IC50 [12]: > 66.6 µM (inactive)
- IC50 [13]: 8.06 µM (active)

SMILES: Cc1cc(C)c(S(=O)(=O)N2CCN(C(=O)C3COc4ccccc4O3)CC2)c(C)c1 (stereo not drawn)
- IC50 (Beta-galactosidase): > 80 µM (inactive)

SMILES: Cc1cccc(N2C(=O)/C(=C\c3ccc(C(=O)O)cc3)c3ccccc3C2=O)c1
- IC50 [14]: > 100 µM (inactive)
- IC50 [15]: 6.45 µM (active)

SMILES: O=C(NCCc1ccccc1Cl)[C@@H]1CCCN1C(=O)[C@@H](NS(=O)(=O)c1ccc(F)cc1F)c1ccccc1
- IC50 (cells [16]): > 29.9 µM (inactive)
- EC50 [17]: 12.4 µM (inactive)
- IC50 [18]: 5.69 µM (active)
- EC50 (cells [19]): > 29.9 µM (inactive)

SMILES: Cc1c(Cl)c(C(=O)NN=C(S)NCc2ccco2)nn1C
- IC50 [1]: > 122 µM (inactive)

SMILES: CC(C)n1cc(/C=N/Nc2ccc(Cl)c(C(=O)O)c2)c2ccccc21
- IC50 (Beta Lactamase): > 59.6 µM (inactive)
- IC50 [20]: 41.8 µM (active)
- IC50 [21]: > 50 µM (inactive)
- IC50 (Beta-lactamase [5]): > 59.6 µM (inactive)
- IC50 (Beta-lactamase [6]): > 59.6 µM (inactive)
- IC50 [12]: > 66.6 µM (inactive)
- IC50 [13]: 3.26 µM (active)
- IC50 [22]: 102 µM (active)

SMILES: Cc1ccc(-c2cnc3c(Cl)c(C)nn3c2)cc1
- AC50 [23]: 5.87 µM (active)
- AC50 [24]: 40.8 µM (active)
- AC50 [25]: 7.53 µM (active)
- AC50 [26]: 8.19 µM (active)
- AC50 [27]: 31.5 µM (active)

SMILES: O=C(CSc1nnc(Cn2nnc3ccccc32)o1)N(Cc1ccc(Cl)cc1)c1ccccc1
- AC50 (INS1): 4.83 µM (active)
- AC50 [28]: 2.29 µM (active)
- AC50 [29]: 6.74 µM (active)
- AC50 [30]: 11.9 µM (active)
- IC50 (Galanin receptor type 3): 1.11 µM (active)
- EC50 (cells [31]): > 29.9 µM (inactive)
- IC50 [32]: 4.19 µM (active)

SMILES: C/C(=C\c1ccccc1)CN1CCN(c2ccccc2)CC1
- EC50 (Mu-type opioid receptor): 92.5 µM (inactive)
- EC50 [33]: 76.1 µM (inactive)

SMILES: O=C(CSc1ccc(Br)cc1)N1CCN(C(=O)c2ccco2)CC1
- IC50 (Beta-galactosidase): > 80 µM (inactive)

SMILES: Cc1ccc(-c2sc(C(=O)NN)c(C)c2C#N)cc1
- IC50 (Galanin receptor type 3): > 29.9 µM (inactive)
- EC50 (cells [31]): > 29.9 µM (inactive)
